Results as given in the NIST ThermoML archive (doi:10.1016/j.fluid.2014.10.015).
Numbers after ± are expanded uncertainties.

Settings: for mass density / viscosity: Liquid; for mass density: Vibrating tube method; for viscosity: Concentric cylinders viscometry; for surface tension liquid-gas: Pendant drop shape

CC(=O)[O-].CCCCn1cc[n+](C)c1 [1-butyl-3-methylimidazolium acetate]
Settings	mass density [kg/m3]	viscosity [mPa·s]
273.15 K, 101 kPa	1068.3 ± 6.2	–
273.15 K, 101.33 kPa	1068.29 ± 6.2	–
273.15 K, 238 kPa	1068.35 ± 6.2	–
273.15 K, 5002 kPa	1070.1 ± 6.2	–
273.15 K, 10020 kPa	1071.93 ± 6.2	–
273.15 K, 19968 kPa	1075.5 ± 6.3	–
273.15 K, 29945 kPa	1079.01 ± 6.4	–
273.15 K, 40001 kPa	1082.46 ± 6.5	–
273.15 K, 49987 kPa	1085.81 ± 6.5	–
273.15 K, 59935 kPa	1089.07 ± 6.6	–
273.15 K, 69985 kPa	1092.29 ± 6.7	–
273.15 K, 79928 kPa	1095.39 ± 6.8	–
273.15 K, 90040 kPa	1098.47 ± 6.9	–
273.15 K, 99956 kPa	1101.42 ± 7	–
273.15 K, 109260 kPa	1104.11 ± 7	–
273.15 K, 119925 kPa	1107.11 ± 7.1	–
273.15 K, 129945 kPa	1109.85 ± 7.2	–
273.15 K, 139956 kPa	1112.52 ± 7.3	–
278.15 K, 101.33 kPa	–	3157.5 ± 190
278.17 K, 101.33 kPa	1065.11 ± 6.1	–
283.12 K, 747 kPa	1062.18 ± 6.1	–
283.13 K, 5103 kPa	1063.85 ± 6.1	–
283.15 K, 101 kPa	1061.93 ± 6.1	–
283.15 K, 101.33 kPa	–	1818.3 ± 99
283.15 K, 59694 kPa	1083.4 ± 6.5	–
283.15 K, 70000 kPa	1086.8 ± 6.6	–
283.15 K, 79404 kPa	1089.83 ± 6.7	–
283.15 K, 90034 kPa	1093.15 ± 6.8	–
283.15 K, 98553 kPa	1095.75 ± 6.9	–
283.15 K, 109979 kPa	1099.13 ± 7	–
283.15 K, 120352 kPa	1102.1 ± 7.1	–
283.15 K, 129998 kPa	1104.78 ± 7.2	–
283.15 K, 139706 kPa	1107.39 ± 7.2	–
283.16 K, 9902 kPa	1065.67 ± 6.2	–
283.16 K, 29987 kPa	1073.08 ± 6.3	–
283.16 K, 39574 kPa	1076.5 ± 6.4	–
283.16 K, 50021 kPa	1080.12 ± 6.5	–
283.17 K, 101.33 kPa	1061.96 ± 6.1	–
283.17 K, 19845 kPa	1069.38 ± 6.2	–
293.13 K, 99228 kPa	1090.59 ± 6.8	–
293.13 K, 110000 kPa	1093.89 ± 6.9	–
293.13 K, 120552 kPa	1097.03 ± 7	–
293.13 K, 130029 kPa	1099.77 ± 7.1	–
293.13 K, 139794 kPa	1102.51 ± 7.2	–
293.14 K, 19892 kPa	1063.32 ± 6.2	–
293.14 K, 89975 kPa	1087.68 ± 6.7	–
293.15 K, 101 kPa	1055.7 ± 6	–
293.15 K, 101.33 kPa	1055.7 ± 6	689.5 ± 32
293.15 K, 928 kPa	1056.02 ± 6	–
293.15 K, 10042 kPa	1059.57 ± 6.1	–
293.15 K, 29991 kPa	1067.08 ± 6.2	–
293.15 K, 50024 kPa	1074.3 ± 6.4	–
293.15 K, 59451 kPa	1077.57 ± 6.5	–
293.15 K, 70011 kPa	1081.16 ± 6.5	–
293.15 K, 79858 kPa	1084.42 ± 6.6	–
293.16 K, 4731 kPa	1057.51 ± 6.1	–
293.16 K, 39318 kPa	1070.48 ± 6.3	–
298.13 K, 119989 kPa	1094.32 ± 6.9	–
298.14 K, 19965 kPa	1060.4 ± 6.1	–
298.14 K, 59928 kPa	1075.03 ± 6.4	–
298.15 K, 101 kPa	1052.59 ± 6	–
298.15 K, 101.33 kPa	1052.59 ± 6	447.5 ± 19
298.15 K, 1002 kPa	1052.95 ± 6	–
298.15 K, 10002 kPa	1056.52 ± 6.1	–
298.15 K, 29947 kPa	1064.19 ± 6.2	–
298.15 K, 49953 kPa	1071.51 ± 6.4	–
298.15 K, 70002 kPa	1078.49 ± 6.5	–
298.15 K, 89954 kPa	1085.08 ± 6.7	–
298.15 K, 109924 kPa	1091.31 ± 6.8	–
298.15 K, 129954 kPa	1097.2 ± 7	–
298.15 K, 139957 kPa	1100.01 ± 7.1	–
298.16 K, 5001 kPa	1054.55 ± 6	–
298.16 K, 39934 kPa	1067.89 ± 6.3	–
298.16 K, 80006 kPa	1081.84 ± 6.6	–
298.16 K, 99359 kPa	1088.06 ± 6.8	–
313.13 K, 101.33 kPa	1043.35 ± 5.9	–
313.13 K, 20418 kPa	1051.65 ± 6	–
313.13 K, 30021 kPa	1055.44 ± 6.1	–
313.13 K, 39510 kPa	1059.09 ± 6.2	–
313.13 K, 50039 kPa	1063.04 ± 6.2	–
313.14 K, 59562 kPa	1066.53 ± 6.3	–
313.14 K, 139775 kPa	1092.44 ± 7	–
313.15 K, 101 kPa	1043.35 ± 5.9	–
313.15 K, 101.33 kPa	–	155 ± 5.4
313.15 K, 70013 kPa	1070.25 ± 6.4	–
313.15 K, 119744 kPa	1086.54 ± 6.8	–
313.15 K, 129979 kPa	1089.6 ± 6.9	–
313.16 K, 10222 kPa	1047.54 ± 6	–
313.16 K, 79427 kPa	1073.52 ± 6.5	–
313.16 K, 89989 kPa	1077.08 ± 6.5	–
313.16 K, 98994 kPa	1080.03 ± 6.6	–

Settings	surface tension liquid-gas [mN/m]
293.2 K	37.87 ± 1.4
298.2 K	37.61 ± 1.4
303.2 K	37.36 ± 1.4
308.2 K	37.11 ± 1.4
